The data set has as its target ATP-dependent translocase ABCB1 (Homo sapiens, UniProt P08183). The data set can be described thus: TP_TRANSPORTER: increase in Doxorubicin intracellular accumulation (Doxorubicin: 0.05 ug/mL, MS-209: 3 uM) in K562/ADM cells. Type of data set: functional, cell-based. Particulars: k562/adr.

ATP-dependent translocase ABCB1, sequence (P08183 whole entry): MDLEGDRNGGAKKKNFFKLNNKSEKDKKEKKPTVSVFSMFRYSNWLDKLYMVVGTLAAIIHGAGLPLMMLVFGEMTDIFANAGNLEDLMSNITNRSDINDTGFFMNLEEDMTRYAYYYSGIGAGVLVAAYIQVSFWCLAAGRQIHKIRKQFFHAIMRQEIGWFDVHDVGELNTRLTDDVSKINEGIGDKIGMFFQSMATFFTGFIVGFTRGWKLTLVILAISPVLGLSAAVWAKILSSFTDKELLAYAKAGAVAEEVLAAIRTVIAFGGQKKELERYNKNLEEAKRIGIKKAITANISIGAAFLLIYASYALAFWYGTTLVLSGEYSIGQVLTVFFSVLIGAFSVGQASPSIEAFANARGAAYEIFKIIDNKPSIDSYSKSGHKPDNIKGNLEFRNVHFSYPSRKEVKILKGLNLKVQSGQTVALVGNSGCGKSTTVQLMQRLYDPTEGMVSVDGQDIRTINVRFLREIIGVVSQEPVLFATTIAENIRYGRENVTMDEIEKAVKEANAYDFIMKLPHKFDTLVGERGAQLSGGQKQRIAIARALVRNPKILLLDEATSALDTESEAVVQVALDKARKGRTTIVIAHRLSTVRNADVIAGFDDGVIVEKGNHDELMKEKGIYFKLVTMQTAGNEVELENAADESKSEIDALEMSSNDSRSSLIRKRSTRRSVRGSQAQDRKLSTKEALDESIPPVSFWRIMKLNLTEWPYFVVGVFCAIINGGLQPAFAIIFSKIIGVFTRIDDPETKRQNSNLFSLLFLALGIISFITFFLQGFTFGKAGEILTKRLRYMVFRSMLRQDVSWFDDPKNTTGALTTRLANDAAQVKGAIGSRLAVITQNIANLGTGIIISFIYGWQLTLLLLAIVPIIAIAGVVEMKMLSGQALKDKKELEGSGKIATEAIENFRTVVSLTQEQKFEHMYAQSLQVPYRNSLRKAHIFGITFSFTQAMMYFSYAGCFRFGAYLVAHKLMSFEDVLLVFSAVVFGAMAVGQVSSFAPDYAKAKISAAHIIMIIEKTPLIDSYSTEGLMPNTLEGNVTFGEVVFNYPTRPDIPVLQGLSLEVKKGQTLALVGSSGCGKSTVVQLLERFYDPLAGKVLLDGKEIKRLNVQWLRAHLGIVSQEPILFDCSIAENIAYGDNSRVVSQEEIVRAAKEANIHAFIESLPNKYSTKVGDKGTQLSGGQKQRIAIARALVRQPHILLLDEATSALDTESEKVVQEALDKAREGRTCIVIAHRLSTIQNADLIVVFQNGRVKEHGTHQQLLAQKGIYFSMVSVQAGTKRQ

On to `O=C(C(c1ccccc1)c1ccccc1)N1CCN(C[C@@H](O)COc2cccc3ncccc23)CC1`, for which the Activity entry is “inhibitor [+]”.

(Values after ChEMBL document CHEMBL2074138, “New multidrug-resistance-reversing drugs, MS-209 and SDZ PSC 833” (Cancer Chemother Pharmacol, 1997).)
